“Also recorded” adds a separate entry of the source.
Columns and labels:
PRMT5 = PRMT5 (Homo sapiens, UniProt O14744); experiment: selectivity of YD1113 on PRMT panel, PRMT5; format: biochemical; settings: read-out: IC50 (nM) | PRMT5
Description: (§1) The selectivity of compounds YD1113 and YD1290 on PRMTs were performed by Reaction Biology Corp.
(§2) Next, the selectivity of YD1113 was investigated on a panel of PRMTs at 10 μM.

PRMT7 [1] = experiment: selectivity of YD1113 on PRMT panel, PRMT7; format: biochemical
Description: as §1, §2

PRMT3 [2] = experiment: selectivity of YD1113/YD1290 on PRMT panel, PRMT3; format: biochemical
Description: as §1, §2
(§3) After validating the benzyl urea moiety as an unconventional homocysteine mimic of SAH for PRMTs, it was hypothesized that incorporating the benzyl urea moiety into the original pan PRMT inhibitor II757 would build a potent bisubstrate inhibitor. […] To enable a stable tri-substitution, the sulfur atom with a nitrogen atom was replaced. YD1290 was synthesized following the reported methods 9, 15 and tested in a radioactivity assay for PRMTs (FIG. 6b).

PRMT6 [3] = target: T1, PRMT6 (Homo sapiens, UniProt Q96LA8); experiment: selectivity of YD1113/YD1290 on PRMT panel, PRMT6; format: biochemical
Description: as §1, §2, §3

PRMT8 [4] = target: T2, PRMT8 (Homo sapiens, UniProt Q9NR22); experiment: selectivity of YD1113/YD1290 on PRMT panel, PRMT8; format: biochemical
Description: as §1, §2, §3

PRMT1 [5] = target: T3, PRMT1 (Homo sapiens, UniProt Q99873); experiment: SAHH-coupled fluorescence assay, inhibition of PRMT1; format: biochemical
T3 construct: made in house
Summary of the method: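 PRMT1 (0.1 μM) was run with 10 μM AdoMet, 5 μM SAHH and 10 μM ThioGlo4 in 2.5 mM HEPES pH 7.0, 25 mM NaCl, 25 μM EDTA, 50 μM TCEP and 0.01% Triton X-100. Fluorescence (ex 400/em 465 nm) was monitored for 15 min. Assays were done in duplicate.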

PRMT4 [6] = experiment: selectivity of YD1113/YD1290 on PRMT panel, PRMT4; format: biochemical
Description: as §1, §2, §3

PRMT1 [7] = target: T3, PRMT1; experiment: selectivity of YD1113/YD1290 on PRMT panel, PRMT1; format: biochemical
Description: as §1, §2, §3

PRMT3 [8] = experiment: SAHH-coupled fluorescence assay, inhibition of PRMT3; format: biochemical
Description: A fluorescence-based SAHH-coupled assay was applied to study the inhibition activity of all synthesized compounds on PRMT 1 and 3.
The PRMT3 methylation assay was performed under the following conditions in a final well volume of 100 μL: 20 mM Tris (pH=7.5), 0.01% Triton X-100, 5 μM SAHH, 0.25 μM PRMT3, 30 μM AdoMet, and 15 μM ThioGlo4. […] Fluorescence was monitored on a BMG CLARIOstar microplate reader with excitation 380 nm and emission 505 nm. Data were processed by using GraphPad Prism software 8.0. All experiments were performed in duplicate.
(§4) Next, the inhibition activity of the library was investigated for five PRMT members from type I PRMTs.
The PRMT3 methylation assay was performed under the following conditions in a final well volume of 100 μL: 20 mM Tris (pH=7.5), 0.01% Triton X-100, 5 μM SAHH, 0.25 μM PRMT3, 30 μM AdoMet, and 15 μM ThioGlo4. […] Fluorescence was monitored on a BMG CLARIOstar microplate reader with excitation 380 nm and emission 505 nm. Data were processed by using GraphPad Prism software 8.0.

PRMT8 [9] = target: T2, PRMT8; experiment: radioactive assay (Reaction Biology Corp.), inhibition of PRMT8; format: biochemical
Description: as §4
(§5) The PRMT 4, 6 and 8 methylation assays were performed by Reaction Biology corp.

PRMT3 [10] = target: T4, PRMT3 (Homo sapiens, UniProt O60678); experiment: SAHH-coupled fluorescence assay, inhibition of PRMT3; format: biochemical; design: PRMT3 (residues 211-531) was cloned into the pET28a-MHL expression vector; tag of the pET28a-MHL vector (not described); made in house; host or cells: Escherichia coli BL21(DE3)
Summary of the method: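 Coupled SAHH/ThioGlo4 fluorescence read-out (ex 380 nm, em 505 nm) of PRMT3 (0.25 μM) methylation with 30 μM AdoMet and 5 μM SAHH. Buffer was 20 mM Tris pH 7.5 with 0.01% Triton X-100. Run in duplicate.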

PRMT6 [11] = target: T1, PRMT6; experiment: radioactive assay (Reaction Biology Corp.), inhibition of PRMT6; format: biochemical
Description: as §4, §5

PRMT4 [12] = target: T5, PRMT4 (Homo sapiens, UniProt Q86X55); experiment: radioactive assay (Reaction Biology Corp.), inhibition of PRMT4; format: biochemical
T5 sequence (Q86X55 1-608): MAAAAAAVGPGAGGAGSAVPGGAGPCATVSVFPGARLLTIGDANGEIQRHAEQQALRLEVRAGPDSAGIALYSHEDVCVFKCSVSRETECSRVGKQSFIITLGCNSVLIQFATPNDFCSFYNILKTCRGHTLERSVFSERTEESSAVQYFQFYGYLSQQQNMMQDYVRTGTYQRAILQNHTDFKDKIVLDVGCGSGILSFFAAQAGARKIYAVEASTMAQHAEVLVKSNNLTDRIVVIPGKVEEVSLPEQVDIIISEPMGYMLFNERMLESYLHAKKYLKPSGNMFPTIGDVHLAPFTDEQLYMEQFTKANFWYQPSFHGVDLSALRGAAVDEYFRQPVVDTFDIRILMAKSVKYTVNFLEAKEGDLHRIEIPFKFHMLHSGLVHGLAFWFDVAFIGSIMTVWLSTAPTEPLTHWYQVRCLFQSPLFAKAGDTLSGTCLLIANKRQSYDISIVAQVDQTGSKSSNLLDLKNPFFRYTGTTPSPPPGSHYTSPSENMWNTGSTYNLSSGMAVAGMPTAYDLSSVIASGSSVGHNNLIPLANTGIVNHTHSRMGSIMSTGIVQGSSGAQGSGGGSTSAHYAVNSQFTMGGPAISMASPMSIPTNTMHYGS
Description: as §4, §5

PRMTs = settings: cited from earlier work
PRMT4 [13] = experiment: radioactive assay (Reaction Biology Corp.), inhibition of PRMT4; format: biochemical
Description: as §4, §5

PRMT 5/7 = settings: cited from earlier work
PRMT1 [14] = target: T3, PRMT1; experiment: thermal shift assay PRMT1; format: binding; settings: 100 μM compound, 10 μM protein
Description: (§6) The fluorescence-based thermal shift assay was performed using a StepOne plus qPCR instrument (Thermal Fisher). For PRMT1, 10 μM of protein was mixed with 2× sypro orange and DMSO, or 100 μM SAM, or 100 μM YD1113, or 100 μM YD1290 in a buffer consisting of 2.5 mM HEPES (pH=7.0), 25 mM NaCl, 25 μM EDTA, 50 μM TCEP, 0.01% Triton X-100. For PRMT3, 20 μM of protein was mixed with 2× sypro orange and DMSO, or 100 μM SAM, or 100 μM YD1113, or 100 μM YD1290 in a buffer consisting of 20 mM Tris (pH=7.5), 0.01% Triton X-100. For PRMT4, 20 μM of protein was mixed with 2× sypro orange and DMSO, or 100 μM SAM, or 100 μM YD1113, or 100 μM YD1290 in a buffer consisting of 20 mM bicine (pH=8.5), 0.01% Triton X-100. All samples were heated from 25° C. to 75° C. at an increased rate of 0.5° C. per minute. Protein denaturation was monitored by the increased fluorescence signal of Sypro Orange, which captures exposed hydrophobic residues during thermal unfolding. The recorded curves were analyzed by the software StepOne plus and plotted in GraphPad Prism 8 software.
(§7) Next, the thermal shift assay (TSA) was conducted as an orthogonal method to examine the effects of YD1290 on the thermal stability of PRMT1, 3, and 4 (Figure S1).

PRMT3 [15] = target: T4, PRMT3; experiment: thermal shift assay PRMT3; format: binding; design: PRMT3 (residues 211-531) was cloned into the pET28a-MHL expression vector; tag of the pET28a-MHL vector (not described); made in house; host or cells: Escherichia coli BL21(DE3); settings: 100 μM compound, 20 μM protein
Description: as §6, §7

PRMT4 [16] = target: T6, PRMT4 (Homo sapiens, UniProt Q86X55); experiment: thermal shift assay PRMT4; format: binding; settings: 100 μM compound, 20 μM protein
T6 construct: PRMT4 (residues 140-480) was cloned into the pFBOH-MHL vector; tag of the pFBOH-MHL vector (poly-His implied by Ni-NTA purification; not described); made in house; host or cells: Sf9 insect cells
Description: as §6, §7

PRMT7 [17] = target: PRMT7 (Homo sapiens, UniProt Q9NVM4); settings: cited from earlier work
DOT1L = settings: cited from earlier work

T4 sequence (O60678 211-531): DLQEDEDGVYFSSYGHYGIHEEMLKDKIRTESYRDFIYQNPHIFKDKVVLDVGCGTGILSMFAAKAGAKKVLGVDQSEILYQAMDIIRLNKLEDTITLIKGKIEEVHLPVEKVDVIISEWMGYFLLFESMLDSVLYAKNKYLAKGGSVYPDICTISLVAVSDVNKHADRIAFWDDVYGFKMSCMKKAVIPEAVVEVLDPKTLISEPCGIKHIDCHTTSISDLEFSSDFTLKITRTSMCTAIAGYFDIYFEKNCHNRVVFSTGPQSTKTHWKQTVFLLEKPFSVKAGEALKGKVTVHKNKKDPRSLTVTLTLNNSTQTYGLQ
Sequence of PRMT5 (O14744 whole entry, species assumed): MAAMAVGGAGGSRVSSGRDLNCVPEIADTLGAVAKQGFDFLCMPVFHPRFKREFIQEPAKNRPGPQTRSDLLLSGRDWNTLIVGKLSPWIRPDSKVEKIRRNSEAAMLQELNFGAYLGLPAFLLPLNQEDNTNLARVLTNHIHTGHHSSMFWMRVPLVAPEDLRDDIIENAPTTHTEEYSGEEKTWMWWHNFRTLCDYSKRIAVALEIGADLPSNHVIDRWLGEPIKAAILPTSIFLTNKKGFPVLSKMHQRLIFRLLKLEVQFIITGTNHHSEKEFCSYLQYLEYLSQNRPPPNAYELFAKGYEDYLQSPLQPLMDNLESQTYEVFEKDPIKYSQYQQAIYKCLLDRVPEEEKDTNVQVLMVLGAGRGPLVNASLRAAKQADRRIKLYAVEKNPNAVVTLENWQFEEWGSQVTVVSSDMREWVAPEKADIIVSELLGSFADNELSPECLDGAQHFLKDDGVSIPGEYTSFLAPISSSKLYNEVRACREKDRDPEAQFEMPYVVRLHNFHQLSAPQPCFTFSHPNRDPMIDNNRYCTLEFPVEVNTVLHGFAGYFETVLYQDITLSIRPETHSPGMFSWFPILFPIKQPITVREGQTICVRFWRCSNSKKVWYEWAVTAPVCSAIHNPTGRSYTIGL
Sequence of PRMT5 (Q9BQA1 whole entry partner, species assumed): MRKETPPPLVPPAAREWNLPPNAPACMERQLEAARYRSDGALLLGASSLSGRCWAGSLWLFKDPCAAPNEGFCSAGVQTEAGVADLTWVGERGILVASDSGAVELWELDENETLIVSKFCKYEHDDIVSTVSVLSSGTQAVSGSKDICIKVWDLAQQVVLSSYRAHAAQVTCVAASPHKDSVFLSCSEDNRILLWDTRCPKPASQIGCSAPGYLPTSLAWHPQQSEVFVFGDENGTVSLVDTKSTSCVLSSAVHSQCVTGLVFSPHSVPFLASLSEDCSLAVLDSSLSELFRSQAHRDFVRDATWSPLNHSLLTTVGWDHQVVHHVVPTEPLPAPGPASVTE
T2 sequence (Q9NR22 whole entry, species assumed): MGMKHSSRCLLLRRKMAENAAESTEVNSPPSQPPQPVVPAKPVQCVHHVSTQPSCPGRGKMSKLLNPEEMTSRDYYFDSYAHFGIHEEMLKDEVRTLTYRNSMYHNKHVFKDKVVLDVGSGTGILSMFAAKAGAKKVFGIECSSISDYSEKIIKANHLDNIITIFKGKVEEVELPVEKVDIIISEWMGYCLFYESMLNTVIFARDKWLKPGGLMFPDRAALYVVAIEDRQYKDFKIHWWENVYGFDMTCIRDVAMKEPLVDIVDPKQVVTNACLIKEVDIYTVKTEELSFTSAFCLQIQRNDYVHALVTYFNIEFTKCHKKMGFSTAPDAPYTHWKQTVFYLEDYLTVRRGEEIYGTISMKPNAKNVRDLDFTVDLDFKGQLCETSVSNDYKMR
T3 sequence (Q99873 whole entry, species assumed): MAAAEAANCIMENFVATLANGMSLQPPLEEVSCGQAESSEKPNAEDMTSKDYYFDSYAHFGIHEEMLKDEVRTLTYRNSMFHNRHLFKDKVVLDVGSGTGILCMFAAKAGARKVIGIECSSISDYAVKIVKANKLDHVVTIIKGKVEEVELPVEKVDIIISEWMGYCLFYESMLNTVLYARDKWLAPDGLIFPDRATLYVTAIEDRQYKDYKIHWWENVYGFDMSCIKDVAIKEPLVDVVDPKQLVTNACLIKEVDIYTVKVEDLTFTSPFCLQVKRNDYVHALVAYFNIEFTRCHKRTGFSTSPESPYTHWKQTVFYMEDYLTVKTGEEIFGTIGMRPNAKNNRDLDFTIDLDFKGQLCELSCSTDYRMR
Sequence of PRMT7 (Homo sapiens, UniProt Q9NVM4) (Q9NVM4 whole entry, species assumed): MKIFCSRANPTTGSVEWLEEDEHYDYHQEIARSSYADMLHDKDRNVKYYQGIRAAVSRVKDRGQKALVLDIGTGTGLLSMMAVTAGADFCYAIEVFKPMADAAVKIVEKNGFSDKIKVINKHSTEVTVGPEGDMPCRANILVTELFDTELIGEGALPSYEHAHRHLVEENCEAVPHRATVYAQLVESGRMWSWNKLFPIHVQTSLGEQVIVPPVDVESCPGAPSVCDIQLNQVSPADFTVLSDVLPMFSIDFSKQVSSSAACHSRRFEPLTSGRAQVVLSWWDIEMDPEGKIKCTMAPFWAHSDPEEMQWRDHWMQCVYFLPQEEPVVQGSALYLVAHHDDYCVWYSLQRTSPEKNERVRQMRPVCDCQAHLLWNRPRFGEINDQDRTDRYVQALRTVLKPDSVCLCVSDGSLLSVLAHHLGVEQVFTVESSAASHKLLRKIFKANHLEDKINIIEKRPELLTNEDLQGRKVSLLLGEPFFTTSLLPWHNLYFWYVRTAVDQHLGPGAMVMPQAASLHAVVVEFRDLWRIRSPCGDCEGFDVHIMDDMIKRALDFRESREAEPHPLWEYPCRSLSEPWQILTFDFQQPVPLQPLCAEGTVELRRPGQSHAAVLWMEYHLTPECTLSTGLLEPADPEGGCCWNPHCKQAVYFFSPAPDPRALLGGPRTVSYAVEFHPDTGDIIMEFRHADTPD
T1 sequence (Q96LA8 whole entry, species assumed): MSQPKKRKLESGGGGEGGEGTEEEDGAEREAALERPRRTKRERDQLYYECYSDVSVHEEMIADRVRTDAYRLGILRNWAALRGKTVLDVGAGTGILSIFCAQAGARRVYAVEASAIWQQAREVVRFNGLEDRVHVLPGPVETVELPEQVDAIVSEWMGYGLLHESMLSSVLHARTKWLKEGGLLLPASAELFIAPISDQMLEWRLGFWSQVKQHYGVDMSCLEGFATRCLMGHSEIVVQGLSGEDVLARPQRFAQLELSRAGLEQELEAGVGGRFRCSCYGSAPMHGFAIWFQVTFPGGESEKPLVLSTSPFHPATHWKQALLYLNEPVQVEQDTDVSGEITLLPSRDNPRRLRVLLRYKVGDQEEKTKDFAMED

Structure (SMILES)	IC50 (PRMT5) [nM]	IC50 (PRMT7 [1]) [nM]	IC50 (PRMT3 [2]) [nM]	IC50 (PRMT6 [3]) [nM]	IC50 (PRMT8 [4]) [nM]	PRMT1 inhibition (PRMT1 [5])	IC50 (PRMT4 [6]) [nM]	IC50 (PRMT1 [7]) [nM]	further results
N=C(NCCCSC[C@H]1O[C@@H](n2cnc3c(NCC#Cc4ccccc4)ncnc32)[C@H](O)[C@@H]1O)Nc1cccc(Br)c1 [YD1-248]	1380	5570	2370	25	24	PRMT1 inhibitors	2760	3.35	–
N=C(NCCCSC[C@H]1O[C@@H](n2cnc3c(NCC#Cc4ccc(O)cc4)ncnc32)C(O)[C@H]1O)Nc1cccc(Br)c1 (stereo in doubt) [YD1-250]	136	2640	1640	44	38	PRMT1 inhibitors	203	7.6	–
N=C(NCCCSC[C@H]1O[C@@H](n2cnc3c(N)ncnc32)[C@H](O)[C@@H]1O)Nc1cccc(Br)c1 [Compound 5f]	–	555	321	–	–	–	5.05	–	IC50 (PRMT3 [8]; read-out: IC50[μM] | PRMT3): 2.2 ± 0.29 µM; inhibition at 10 µM (PRMT8 [9]): 100%; inhibition at 10 µM (PRMT3 [10]): 68%; inhibition at 10 µM (PRMT6 [11]): 100%; inhibition at 10 µM (PRMT4 [12]): 100%; inhibition at 10 µM (PRMT1 [5]): 94%; IC50 (PRMT1 [5]; read-out: IC50[μM] | PRMT1): 0.08 ± 0.016 µM; inhibition of all PRMTs (PRMTs): broad and potent inhibition to all PRMTs
N=C(NCCCSC[C@H]1O[C@@H](n2cnc3c(NCc4cn(Cc5ccccc5)nn4)ncnc32)C(O)[C@H]1O)Nc1cccc(Br)c1 (stereo in doubt) [YD1-254]	1790	> 30000	3620	25	40	PRMT1 inhibitors	1680	14	–
Nc1ncnc2c1ncn2[C@@H]1O[C@H](CSCCNC(=O)NCc2ccc(F)cc2)[C@@H](O)[C@H]1O [Compound 7d, 1-(2-((((2S,3S,4R,5R)-5-(6-amino-9H-purin-9-yl)-3,4-dihydroxytetrahydrofuran-2-yl)methyl)thio)ethyl)-3-(4-fluorobenzyl)urea]	–	–	–	–	–	–	–	–	IC50 (PRMT3 [8]; read-out: IC50 [µM] | PRMT3): 5.9 ± 1.4 µM; inhibition at 10 µM (PRMT8 [9]): 8%; inhibition at 10 µM (PRMT3 [10]): 62%; fold reduction of PRMT3 inhibition vs YD1113 (PRMT3 [10]; vs YD1113): over 10 fold; inhibition at 10 µM (PRMT6 [11]): 25%; PRMT6 inhibition (PRMT6 [11]; 10 μM): inactive to PRMT6; IC50 (PRMT4 [13]): 270 ± 60 nM; inhibition at 10 µM (PRMT4 [12]): 95%; inhibition at 10 µM (PRMT1 [5]): 6%
CCNC(=O)NCCSC[C@H]1O[C@@H](n2cnc3c(N)ncnc32)[C@H](O)[C@@H]1O [DS-437]	–	–	–	–	–	–	–	–	PRMT 5/7 inhibition (PRMT 5/7): dual inhibition to PRMT 5/7
C[S+](CC[C@H](N)C(=O)O)C[C@H]1O[C@@H](n2cnc3c(N)ncnc32)[C@H](O)[C@@H]1O (stereo partly drawn) [SAM, S-adenosyl-L-methionine, reference compound]	–	–	–	–	–	–	–	–	ΔTm PRMT1 (PRMT1 [14]): +1.6 °C; ΔTm PRMT3 (PRMT3 [15]): +1.1 °C; ΔTm PRMT4 (PRMT4 [16]): +1.9 °C
Nc1ncnc2c1ncn2C1OC(CSCCCCNCc2cccc(-c3ccc(Cl)cc3)c2)C(O)C1O (centres unmarked) [SGC8158]	–	–	–	–	–	–	–	–	PRMT7 inhibition (PRMT7 [17]): selectively inhibits PRMT7; also recorded: selective PRMT7 inhibition; also recorded: selective PRMT7 inhibitor
CC(C)N(CCCNC(=O)Nc1ccc(C(C)(C)C)cc1)C[C@H]1O[C@@H](n2ccc3c(N)ncnc32)[C@H](O)[C@@H]1O [EPZ004777]	–	–	–	–	–	–	–	–	selectivity for DOT1L (DOT1L): high selectivity

Source: patent US20260306527A1, “PRMT INHIBITOR COMPOUNDS AND THE USES THEREOF” (Purdue Research Foundation, priority 2023, published 2026)
